Patent US7772192B2, “Compositions and methods for treatment of disease with acetylated disaccharides” (The Regents of the University of California, priority 2003, dated 2010)

What was measured:
LLC cells = assay: Spontaneous tumor metastasis of LLC cells, compound by osmotic pump; assay type: in vivo, mice; conditions: ~1 mg/day/mouse, 4 weeks
Procedure: Osmotic pumps (ref 4) containing vehicle or peracetylated GlcNAcβ3Gal-NM were surgically implanted in a dorsal skin fold of Es1(e) mice and LLC cells (5×10^5) were implanted subcutaneously in the hindquarter. The dose rate of compound was ˜1 mg/day/mouse. Panel A. To detect tumor cells in the lungs, after 4 weeks each animal was injected intraperitoneally with 1 mg of BrdU (bromodeoxyuridine (BrdU), which is taken up by dividing cells—tumor cells, and therefore indicates the quantity of tumor cells in the lungs when cells from the lungs are stained with anti-BrdU antibodies). The animals were sacrificed, the heart was perfused with PBS and the lungs removed. Each lung was incubated with collagenase (10 mg/ml, 1 h, 37° C.), syringed through an 18-gauge needle and filtered through a […] nylon filter, and cells were fixed (70% ethanol, 1×10^6 cells/ml). The relative number of BrdU-labeled cells in the lungs was determined by flow cytometry (FACS) using a mouse anti-BrdU-FITC antibody. Control experiments used mouse IgG-FITC antibody. Statistics were calculated by one-way ANOVA tests comparing three groups of 4-7 animals. […] Statistics were calculated by student t-test comparing two groups of 4-7 animals.

[1] = test system: cell-surface sLe^a of LS180 cells; assay: Flow cytometry of cell-surface sLe^a (CA19-9); assay type: cell-based, human; conditions: 50 μM
Procedure: (§1) Peracetylated forms of GlcNAcβ1,3Galβ-O-naphthalenemethanol (AcGnG-NM) and Galβ1,3Galβ-O-naphthalenemethanol (AcGG-NM) were prepared as described. Sarkar, et al., Carbohydr. Res., 329, 287-300, 2000. The compounds were dissolved in dimethylsulfoxide (DMSO) and added to growth medium to achieve the concentrations indicated in the figures. The supplemented medium was then exchanged for the medium in established cultures of cells in order to avoid lysis caused by adding concentrated DMSO directly to the plates. The final concentration of DMSO was adjusted to ≦0.5% (v/v). After the specified number of days, the cells were harvested with 2 mM EDTA in PBS (20 min) and used for the following experiments.
(§2) Cell Sorting. To detect the presence or absence of the relevant carbohydrate determinants, cells were stained with CSLEX-1 (anti-sLe^X, 5 μg/mL, Becton-Dickinson) or CA-19-9 ([…], 14.5 μg/mL, Chemicon) and analyzed by flow cytometry (FACScan Becton-Dickinson, Franklin Lakes, N.J.). […]
(§3) Treatment of LS180 cells with AcGnG-NM reduces cell-surface sLe^X, but not sLe^a. […] LS180 cells were grown in the presence of 50 μM AcGnG-NM, harvested with EDTA, stained with monoclonal antibodies (CSLEX-1, anti-sLe^X and CA19-9, anti-sLe^a) as indicated and analyzed by flow cytometry (Materials and Methods). […]

LS180 cells = assay: Toxicity and growth of LS180 cells in culture; assay type: cell-based, human
Procedure: Adhesion to selectins is altered in disaccharide-treated tumor cells. Treatment of LS180 cells with AcGnG-NM was not toxic to the cells up to 100 μM based on growth curves and exclusion of Trypan blue. […] LS180 colon carcinoma cells were “panned” onto wells precoated with recombinant E- or P-selectin as indicated. Open circles, adhesion to E-selectin; filled circles, adhesion to P-selectin. The extent of adhesion was normalized to the value obtained for cells not treated with disaccharide. […] Each experimental condition was done in quadruplicate and the average values±standard errors are given. […] Adhesion to P-selectin was more sensitive to the inhibitor than adhesion to E-selectin under these conditions. The inhibitory effect of AcGnG-NM was specific since incubation of cells with acetylated Galβ1,3Galβ-O-NM (AcGG-NM) had no effect on expression of sLe^X or adhesion to either selectin conjugate See FIG. 3. The maximum extent of inhibition approached the values obtained when the cells were pre-treated with sialidase or blocking antibody to the corresponding selectin.
A final consideration is the ability of selectins to participate in “arresting” newly circulating tumor cells in organ capillary beds. Entrapment of emboli may have important consequences on the eventual uptake and growth of tumor “seeds” into large metastatic tumor foci. […]

[2] = test system: HAL8 human metastatic lung adenocarcinoma cells; assay: Metastatic lung tumor formation in SCID mice (HAL8); assay type: in vivo
mixed oligosaccharides = assay: Oligosaccharide priming, [6-3H]Gal incorporation; assay type: cell-based
Text: A 4-deoxy modified acetylated disaccharide inhibits sLe^X expression in the absence of oligosaccharide priming.

[3] = test system: cell-surface sLe^X of LS180 cells; assay: Flow cytometry of cell-surface sLe^X (CSLEX-1); assay type: cell-based, human; conditions: 50 μM
Procedure: as §1, §2, §3

[4] = test system: mucin-like oligosaccharides that carry sLe^X determinants; conditions: among several disaccharides; cited from earlier work

## GlcNAcβ1,3Galβ-O-naphthalenemethanol [AcGnG-NM]
LLC cells
  spontaneous tumor metastasis (BrdU-labeled cells in the lungs): Inhibits Spontaneous Tumor Metastasis
[1]
  cell-surface sLe^a: no effect
LS180 cells; up to 50 μM
  LS180 growth in culture: minimal effects
LS180 cells; up to 100 μM, growth curves and exclusion of Trypan blue
  toxicity to the cells: not toxic
[2]
  lung tumor foci: behaved similarly
Mixed oligosaccharides
  incorporation of [6-^3H]Gal into mixed oligosaccharides: stimulates
[3]
  cell-surface sLe^X: significant inhibition
[4]
  potency as primer: highest potency
